Source: PubChem BioAssay (NCI)
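48-hour exposure; five concentrations; linearly interpolated endpoints. GI50 = concentration required for 50% inhibition of growth. TGI denotes the concentration required for complete inhibition of growth.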 Where a SMILES comes first, the peptide text is derived from it. [ ]: non-standard residue; d: D form. The star is where a group is joined. Cbz = O=C(OCc1ccccc1)*; Aib = CC(C)(N)C(=O)O

What was measured:
Assay in all cases: inhibition of tumour cell growth, NCI panel, 48 h
[1] = system: HCC-2998 colon
[2] = system: SF-295 CNS
[3] = system: HT29 colon
[4] = system: CCRF-CEM leukemia
[5] = system: EKVX NSCLC
[6] = system: PC-3 prostate
[7] = system: HL-60(TB) leukemia
[8] = system: UACC-62 melanoma
[9] = system: HOP-92 NSCLC
[10] = system: HS 578T breast

Row | SMILES | TGI [1] [µM] | TGI [2] [µM] | TGI [3] [µM] | TGI [4] [µM] | TGI [5] [µM] | TGI [6] [µM] | TGI [7] [µM] | TGI [8] [µM] | TGI [9] [µM] | GI50 [6] [µM] | TGI [10] [µM]
1 | CCOC(=O)CN1C(=O)C(=O)N(c2ccc(OC)c3ccccc23)C1=O | > 100 | > 100 | > 100 | > 100 | > 100 | > 100 | > 100 | > 100 | – | – | –
2 | OC(CCl)CN1CC[N+]2(CC1)CC[N+]1(CCN(CC(O)CCl)CC1)CC2 (stereo unspecified) | > 50 | > 50 | > 50 | > 50 | > 50 | – | > 50 | – | > 50 | – | –
3 | CC(C)(C)CC(C)(C)NCC(O)COc1ccc(C(C)(C)c2ccc(OCC(O)CNC(C)(C)CC(C)(C)C)cc2)cc1 (stereo unspecified) | 1.21 | 3.21 | 1.42 | 1.03 | 3.08 | 3.38 | – | 3.31 | 3 | 1.88 | –
4 | O=C(O)c1cccc(S(=O)(=O)NN2C(=O)CSC2c2c(O)ccc3ccccc23)c1 (stereo unspecified) | > 100 | 94.9 | 69.2 | 46.4 | > 100 | > 100 | 59.8 | 66.4 | – | – | –
5 | Fc1ccc2c(c1)nc1n2C(c2c(F)cccc2F)SC1 (stereo unspecified) | > 100 | > 100 | > 100 | – | > 100 | > 100 | 70 | > 100 | > 100 | – | > 100
6 | COc1ccc(C2=NN(c3nsc4ccccc34)C(=O)CC2)cc1 | > 100 | – | > 100 | > 100 | > 100 | – | > 100 | > 100 | > 100 | – | –
7 | c1ccc(OCc2nnc(CCCCCCCCc3nnc(COc4ccccc4)o3)o2)cc1 | > 100 | > 100 | > 100 | > 100 | > 100 | > 100 | > 100 | – | > 100 | – | –
8 | CC1=NN2CCC(=O)N=C2S1 | – | > 100 | > 100 | > 100 | > 100 | > 100 | > 100 | > 100 | > 100 | – | > 100
9 | Cc1ccc2c(=O)cc(-c3cccc(F)c3)[nH]c2n1 | 0.401 | – | 1.11 | > 100 | > 100 | – | 0.0621 | > 100 | > 100 | – | 0.0591
10 | Nc1c(C(=O)O)nnc2cc(Cl)ccc12 | > 100 | > 100 | > 100 | > 100 | > 100 | > 100 | > 100 | > 100 | – | – | > 100
11 | CCN(CCC#N)C(=O)Nc1ccccc1 | > 100 | > 100 | > 100 | > 100 | > 100 | > 100 | – | > 100 | > 100 | – | –
12 | CSc1nc(-c2ccccc2)nc(=[N+]2CCOCC2)s1 | > 100 | – | > 100 | 62.6 | > 100 | – | > 100 | > 100 | – | – | –
13 | CN1C/C(=C\c2cccs2)C(=O)/C(=C/c2cccs2)C1 | 45.5 | > 100 | 50.5 | 26.7 | 75.8 | > 100 | – | > 100 | 67.3 | – | > 100
14 | Nc1ncc2c(n1)-c1ccccc1OC2 | > 100 | > 100 | > 100 | > 100 | > 100 | – | > 100 | > 100 | > 100 | – | –
15 | C=C(Cl)CN1c2ccccc2C=Cc2ccccc21 | 33.7 | 35.2 | 56.4 | – | 49.9 | > 100 | – | 44.2 | 61.2 | – | > 100
16 | CCN(CC)CCNc1ccc([N+](=O)[O-])c2nc3ccc(OC)cc3c(N)c12 | – | 2.96 | 1.42 | 1.31 | 3.28 | 2.78 | 0.246 | 3.61 | 3.19 | – | 2.89
17 | Nc1ccc(C(=O)O)cc1 | > 100 | > 100 | > 100 | > 100 | > 100 | > 100 | > 100 | – | > 100 | – | > 100
18 | Cc1ccc(C(=O)N/N=C(\N=Nc2ccccc2C(=O)O)c2ccc(N(C)C)cc2)cc1 | > 100 | > 100 | > 100 | > 100 | > 100 | > 100 | > 100 | – | > 100 | – | > 100
19 | O=S(=O)(O)c1cc(N=[N+]([O-])c2ccc(N=Nc3ccccc3)cc2S(=O)(=O)O)ccc1/C=C/c1ccc(N=[N+]([O-])c2ccc(N=Nc3ccccc3)cc2S(=O)(=O)O)cc1S(=O)(=O)O | > 100 | > 100 | > 100 | > 100 | > 100 | – | > 100 | > 100 | > 100 | – | –
20 | COC(=N)CCCl | > 100 | > 100 | > 100 | > 100 | > 100 | > 100 | > 100 | > 100 | > 100 | – | –
21 | CC(C)(NC(=O)C(C)(C)NC(=O)OCc1ccccc1)C(=O)O (Cbz-[Aib]-[Aib]-OH) | > 100 | > 100 | > 100 | > 100 | > 100 | > 100 | – | > 100 | > 100 | – | > 100
22 | CCCCCCCCCCOc1ccc(N=Nc2nnc(-c3ccc(OCCCCC)cc3)s2)cc1 | > 100 | > 100 | > 100 | > 100 | > 100 | > 100 | – | > 100 | > 100 | – | > 100
23 | CCc1n[nH]c(=O)[nH]1 | > 100 | > 100 | > 100 | > 100 | > 100 | > 100 | – | > 100 | – | – | > 100
24 | COc1ccc(C2=Nc3c(nc(SC)[nH]c3=O)NC(c3ccccc3)C2)cc1 (stereo unspecified) | – | 60.4 | 49.8 | 98.6 | 67.8 | > 100 | 42.5 | – | > 100 | – | –
25 | Cc1ccc(S(=O)(=O)N/N=C\c2c3ccccc3[n+](C)c3ccccc23)cc1 | > 100 | 30.3 | 62.6 | 44.2 | > 100 | – | 59.6 | 74.6 | 73.2 | – | –
